One test concerns the target JAK1 (Homo sapiens, UniProt P23458). Put plainly: JAK kinase activity inhibition, TR-FRET (JAK1). The note with it: TR-FRET kinase assay. The format is biochemical. The procedure, abridged: (§1)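 Steps: compound dilutions added; JAK kinase (0.1-20 nM) in HEPES/MgCl2 buffer added; peptide substrate and ATP mix started the reaction, 0.5-5 h at room temperature; EDTA and labeled antibody added, 1-24 h further. IC50 derived from 620/665 nm signals by four-parameter nonlinear fitting.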

A further test concerns the target TYK2 (Homo sapiens, UniProt P29597). Put plainly: JAK kinase activity inhibition, TR-FRET (TYK2). The note with it: TR-FRET kinase assay. Format: biochemical. The procedure, abridged: as §1
Test [1] deals with JAK-STAT signal pathway of U266 cells. In words: Inhibition of cellular JAK-STAT signal pathway (STAT3 phosphorylation) in U266 cells. Format: cell-based, human. How it is done:
The objective of the test is to test the inhibitory activity of the compound on the cellular JAK-STAT signaling pathway.
U266 cell line was used in this experiment, by activating the JAK-STAT signaling pathway through INF-a stimulation, the inhibitory activity of the compound on its downstream STAT3 phosphorylation was detected, and the half inhibitory concentration IC50 of the compound on the JAK-STAT signaling pathway activity was obtained.
3-12 μL of U266 cell line was spread into the 384-well detection plate, and the number of cells in each well was 100-300 K, followed by addition of 2 μL of the compound solution serially diluted. The plate was incubated for 2 hours with shaking at 350 rpm at room temperature. After 2 hours, 2 μL of INF-a with a final concentration of 1000 U/mL was added. The plate was shaken at room temperature for 15 minutes. 2-5 μL (5×) LANCE Ultra Lysis Buffer 2 solution was added and the plate was shaken at room temperature for 2 hours. After 2 hours, 5 μL of LANCE Ultra Eu-labeled Anti-STAT3 Antibody (PerkinElmer) with a final concentration of 0.5 nM and LANCE Ultra ULight-labeled Anti-STAT3 Antibody (PerkinElmer) with a final concentration of 5 nM were added, and the plate was incubated overnight at room temperature. The fluorescence signal value at 665 nm of each well was measured with the microplate reader, and the inhibition rate was calculated from the fluorescence signal value. According to the inhibition rate of different concentrations, the IC50 of the compound was obtained by curve fitting.
The percentage inhibition data of the wells treated with the compound was calculated with the positive control wells (DMSO control wells) and negative control wells (no kinase added) on the plate {% inhibition rate=100-[(test compound value-negative control value)]/(Positive control value-negative control value)×100}. IC50 value was calculated by using GraphPad prism to fit the data of different concentrations and corresponding percentage inhibition rates to a 4-parameter non-linear logic formula.

The mark [2] stands for this setting: Homo sapiens, U-266, INF-a 1000 U/mL stimulation.

JAK1, sequence (P23458 whole entry): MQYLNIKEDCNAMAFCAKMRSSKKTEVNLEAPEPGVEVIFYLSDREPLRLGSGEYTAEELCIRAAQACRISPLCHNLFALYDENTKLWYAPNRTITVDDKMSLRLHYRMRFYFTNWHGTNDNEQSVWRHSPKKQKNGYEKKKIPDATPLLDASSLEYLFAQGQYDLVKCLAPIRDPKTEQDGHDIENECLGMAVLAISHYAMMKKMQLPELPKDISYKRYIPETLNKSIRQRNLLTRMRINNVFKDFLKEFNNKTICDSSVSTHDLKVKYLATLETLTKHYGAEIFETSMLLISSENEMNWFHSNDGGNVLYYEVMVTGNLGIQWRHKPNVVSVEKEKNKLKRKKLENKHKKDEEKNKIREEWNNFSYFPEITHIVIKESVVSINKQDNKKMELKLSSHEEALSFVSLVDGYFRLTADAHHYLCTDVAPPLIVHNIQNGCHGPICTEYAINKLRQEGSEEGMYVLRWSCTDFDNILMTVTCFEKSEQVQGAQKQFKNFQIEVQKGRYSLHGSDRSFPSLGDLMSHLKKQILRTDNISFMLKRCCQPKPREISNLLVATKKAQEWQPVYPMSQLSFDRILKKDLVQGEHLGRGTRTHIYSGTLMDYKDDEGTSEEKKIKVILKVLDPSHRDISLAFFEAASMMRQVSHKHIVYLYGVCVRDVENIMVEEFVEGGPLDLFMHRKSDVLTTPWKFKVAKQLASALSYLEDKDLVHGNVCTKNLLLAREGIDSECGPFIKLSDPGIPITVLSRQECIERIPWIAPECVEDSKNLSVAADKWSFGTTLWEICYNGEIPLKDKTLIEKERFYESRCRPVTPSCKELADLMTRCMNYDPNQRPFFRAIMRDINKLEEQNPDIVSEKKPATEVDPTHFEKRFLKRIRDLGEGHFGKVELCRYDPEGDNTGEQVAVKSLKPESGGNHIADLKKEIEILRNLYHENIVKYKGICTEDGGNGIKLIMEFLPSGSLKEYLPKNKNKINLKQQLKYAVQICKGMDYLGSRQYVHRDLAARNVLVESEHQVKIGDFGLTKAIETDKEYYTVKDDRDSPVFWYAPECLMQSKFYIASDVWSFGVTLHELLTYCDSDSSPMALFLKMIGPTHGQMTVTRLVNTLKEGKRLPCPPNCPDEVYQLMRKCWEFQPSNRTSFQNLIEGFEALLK
TYK2, sequence (P29597 whole entry): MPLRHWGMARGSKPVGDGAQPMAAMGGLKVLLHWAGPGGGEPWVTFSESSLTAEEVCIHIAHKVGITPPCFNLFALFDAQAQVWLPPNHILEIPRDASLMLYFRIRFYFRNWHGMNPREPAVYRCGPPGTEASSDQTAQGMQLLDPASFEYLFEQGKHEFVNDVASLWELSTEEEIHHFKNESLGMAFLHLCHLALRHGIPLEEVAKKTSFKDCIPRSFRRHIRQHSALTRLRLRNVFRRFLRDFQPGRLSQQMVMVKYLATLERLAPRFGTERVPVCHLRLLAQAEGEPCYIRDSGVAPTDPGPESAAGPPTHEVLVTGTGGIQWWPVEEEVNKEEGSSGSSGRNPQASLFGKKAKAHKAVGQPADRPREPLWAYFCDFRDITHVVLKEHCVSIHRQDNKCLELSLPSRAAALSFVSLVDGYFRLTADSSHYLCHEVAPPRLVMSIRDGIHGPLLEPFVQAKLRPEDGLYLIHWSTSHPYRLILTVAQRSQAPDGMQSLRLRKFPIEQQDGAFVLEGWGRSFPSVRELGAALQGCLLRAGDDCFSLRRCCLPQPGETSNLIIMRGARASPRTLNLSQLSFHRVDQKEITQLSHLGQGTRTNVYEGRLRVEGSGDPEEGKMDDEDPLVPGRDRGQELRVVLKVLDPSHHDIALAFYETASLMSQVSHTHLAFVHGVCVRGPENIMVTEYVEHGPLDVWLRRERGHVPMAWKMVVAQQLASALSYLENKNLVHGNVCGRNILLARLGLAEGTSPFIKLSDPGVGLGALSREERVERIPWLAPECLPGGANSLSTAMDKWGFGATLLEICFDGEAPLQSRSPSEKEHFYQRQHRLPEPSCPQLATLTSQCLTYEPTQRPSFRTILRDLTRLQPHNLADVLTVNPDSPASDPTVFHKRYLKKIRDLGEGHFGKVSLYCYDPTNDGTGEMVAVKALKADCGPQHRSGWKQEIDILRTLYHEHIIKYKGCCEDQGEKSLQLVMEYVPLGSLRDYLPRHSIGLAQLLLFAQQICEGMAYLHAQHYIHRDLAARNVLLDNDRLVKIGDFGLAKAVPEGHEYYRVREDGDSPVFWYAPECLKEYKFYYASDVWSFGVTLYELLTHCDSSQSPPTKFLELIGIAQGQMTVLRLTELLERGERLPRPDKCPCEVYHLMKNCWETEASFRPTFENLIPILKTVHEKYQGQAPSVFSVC

For the molecule `Cc1cc(Nc2nc(N[C@@H]3C[C@H]4CCC[C@@H](C3)N4C(=O)c3cn(C)cn3)nc3sccc23)n[nH]1` [Embodiment 264, (1-methyl-1H-imidazol-4-yl) ((3-exo)-3-((4-((5-methyl-1H-pyrazol-3-yl)amino)thieno[2,3-d]pyrimidin-2-yl)amino)-9-azabicyclo[3.3.1]non-9-yl)methanone], the results for the IC50 (at JAK1; on TYK2; in test [1] (setting [2])) were 0.19 nM, 0.48 nM and 33.5 nM, respectively.
On the same counts, the results for `Cc1cc(Nc2nc(N[C@@H]3C[C@H]4CCC[C@@H](C3)N4C(=O)c3cccnc3)nc3sccc23)n[nH]1` [Embodiment 261, ((3-exo)-3-((4-((5-methyl-1H-pyrazol-3-yl)amino)thieno[2,3-d]pyrimidin-2-yl)amino)-9-azabicyclo[3.3.1]non-9-yl)(pyridin-3-yl)methanone] are 0.04 nM, 5.58 nM and 10.6 nM.
On the same counts, the results for `CCc1cc(Nc2cc3ncccc3c(N[C@@H]3C[C@H]4CC[C@@H](C3)N4CCC#N)n2)n[nH]1` [Embodiment 11, 3-((3-exo)-3-((7-((5-ethyl-1H-pyrazol-3-yl)amino)-1,6-diazanaphthalen-5-yl)amino)-8-azabicyclo[3.2.1]oct-8-yl)propionitrile] are 0.3 nM, 9.13 nM and 4.77 nM.
`Cc1cc(Nc2nc(N[C@@H]3C[C@H]4CCC[C@@H](C3)N4C(=O)CN3CCN(C)CC3)nc3sccc23)n[nH]1` [Embodiment 258, 1-((3-exo)-3-((4-((5-methyl-1H-pyrazol-3-yl)amino)thieno[2,3-d]pyrimidin-2-yl)amino)-9-azabicyclo[3.3.1]non-9-yl)-2-(4-methylpiperazin-1-yl)ethane-1-one]: the IC50 on JAK1 was 0.27 nM; on TYK2, 0.61 nM; in test [1] (setting [2]) it was 32.7 nM.
On the same counts, the results for `Cc1cc(Nc2nc(N[C@@H]3C[C@H]4CCC[C@@H](C3)N4Cc3ccccn3)nc3sccc23)n[nH]1` [Embodiment 271] are 0.05 nM, 4.91 nM and 1.49 nM.
For the molecule `OCc1cnc(Nc2cc3ncccc3c(N[C@@H]3C[C@H]4CC[C@@H](C3)N4CCF)n2)s1` [Embodiment 167, (2-((5-(((3-exo)-8-(2-fluoroethyl)-8-azabicyclo[3.2.1]oct-3-yl)amino)-1,6-diazanaphthalen-7-yl)amino)thiazol-5-yl)methanol], the IC50 at JAK1 came to 2.55 nM; at TYK2 it was 7.28 nM; in test [1] (setting [2]) it was 14.8 nM.
For `CCNCC(=O)N1[C@@H]2CC[C@H]1C[C@H](Nc1nc(Nc3cc(C)[nH]n3)c3ccsc3n1)C2` [Embodiment 255, 2-(ethylamino)-1-((3-exo)-3-((4-((5-methyl-1H-pyrazol-3-yl)amino)thieno[2,3-d]pyrimidin-2-yl)amino)-8-azabicyclo[3.2.1]oct-8-yl)ethane-1-one], the IC50 on JAK1 was determined as 1.17 nM; on TYK2, 2.38 nM; in test [1] (setting [2]), 8.67 nM.
Take `Cc1cc(Nc2nc(N(C)[C@@H]3C[C@H]4CC[C@@H](C3)N4C(=O)CN3CCOCC3)nc3sccc23)n[nH]1` [Embodiment 245, 1-((3-exo)-3-(methyl(4-((5-methyl-1H-pyrazol-3-yl)amino)thieno[2,3-d]pyrimidin-2-yl)amino)-8-azabicyclo[3.2.1]oct-8-yl)-2-morpholinoethane-1-one]: the IC50 at JAK1 was found to be 2.77 nM; on TYK2, 2.76 nM; in test [1] (INF-a 1000 U/mL stimulation), 16.7 nM.
On to `Cc1cc(Nc2nc(N[C@@H]3C[C@H]4CCC[C@@H](C3)N4Cc3nccn3C)nc3sccc23)n[nH]1` [Embodiment 272, N^2-((3-exo)-9-((1-methyl-1H-imidazol-2-yl)methyl)-9-azabicyclo[3.3.1]non-3-yl)-N^4-(5-methyl-1H-pyrazol-3-yl)thieno[2,3-d]pyrimidin-2,4-diamine], for which the IC50 at JAK1 was 0.6 nM; at TYK2 it was 24.7 nM; in test [1] (setting [2]), 15.3 nM.
On to `Cc1cc(Nc2nc(N[C@@H]3C[C@@H]4CN(CCC#N)C[C@@H]4C3)nc3sccc23)n[nH]1` [Embodiment 298, 3-(cis-5-((4-((5-methyl-1H-pyrazol-3-yl)amino)thieno[2,3-d]pyrimidin-2-yl)amino)hexahydrocyclopentadieno[c]pyrrole-2(1H)-yl)propionitrile], for which the IC50 amounted to 0.67 nM on JAK1, 22.8 nM at TYK2 and 1.86 nM in test [1] (setting [2]).
`Cc1cc(Nc2nc(N[C@@H]3C[C@H]4CC[C@@H](C3)N4CCC#N)nc3cccnc23)n[nH]1` [Embodiment 174, 3-((3-exo)-3-((4-((5-methyl-1H-pyrazol-3-yl)amino)pyrido[3,2-d]pyrimidin-2-yl)amino)-8-azabicyclo[3.2.1]oct-8-yl)propionitrile]: the IC50 turned out to be 2.73 nM at JAK1, 1.88 nM on TYK2 and 0.42 nM in test [1] (setting [2]).
The like results for `Cc1cc(Nc2nc(N[C@@H]3C[C@H]4CC[C@@H](C3)N4C(=O)CN(C)C)nc3ccsc23)n[nH]1` [Embodiment 287, 2-(dimethylamine)-1-((3-exo)-3-((4-((5-methyl-1H-pyrazol-3-yl)amino)thieno[3,2-d]pyrimidin-2-yl)amino)-8-azabicyclo[3.2.1]oct-8-yl)ethane-1-one] were, in that order, 0.58 nM, 4.21 nM and 10.5 nM.
Regarding `N#CCCN1[C@@H]2CCC[C@H]1C[C@H](Nc1nc(Nc3ncc(CO)s3)cc3ncccc13)C2` [Embodiment 163, 3-((3-exo)-3-((7-((5-(hydroxymethyl)thiazol-2-yl)amino)-1,6-diazanaphthalen-5-yl)amino)-9-azabicyclo[3.3.1]non-9-yl)propionitrile], the figures for the IC50 (on JAK1; on TYK2; in test [1] (setting [2])) were 0.45 nM, 24.4 nM and 52.6 nM, respectively.
The like results for `O=C(C(F)F)N1[C@@H]2CC[C@H]1C[C@H](Nc1nc(Nc3ncc(CO)s3)cc3ncccc13)C2` [Embodiment 166, 2,2-difluoro-1-((3-exo)-3-((7-((5-(hydroxymethyl)thiazol-2-yl)amino)-1,6-diazanaphthalen-5-yl)amino)-8-azabicyclo[3.2.1]oct-8-yl)ethane-1-one] were, in that order, 0.19 nM, 9.31 nM and 26.7 nM.
For `Cc1cc(Nc2nc(N[C@@H]3C[C@H]4CC[C@@H](C3)N4CCC#N)nc3scnc23)n[nH]1` [Embodiment 66, 3-((3-exo)-3-((7-((5-methyl-1H-pyrazol-3-yl)amino)thiazolo[5,4-d]pyrimidin-5-yl)amino)-8-azabicyclo[3.2.1]oct-8-yl)propionitrile], the results for the IC50 (on JAK1; on TYK2; in test [1] (setting [2])) were 3.02 nM, 1.49 nM and 4.06 nM, respectively.
As to `Cc1cc(Nc2nc(N[C@@H]3C[C@H]4CC[C@@H](C3)N4S(=O)(=O)N3CC(C#N)C3)nc3ccsc23)n[nH]1` [Embodiment 285], the IC50 on JAK1 was 0.17 nM; on TYK2 it was 0.51 nM; in test [1] (setting [2]), 42 nM.
`Cc1cc(Nc2nc(NC3CCN(CCC#N)CC3)nc3ccccc23)n[nH]1` [Embodiment 310, 3-(4-((4-((5-methyl-1H-pyrazol-3-yl)amino)quinazolin-2-yl)amino)piperidin-1-yl)propionitrile]: the IC50 on JAK1 turned out to be 8.67 nM; on TYK2, 0.26 nM; in test [1] (setting [2]) it was 5.41 nM.
`Cc1cc(Nc2cc3ncccc3c(N(C)[C@@H]3C[C@H]4CC[C@@H](C3)N4CCC#N)n2)n[nH]1` [Embodiment 111, 3-((3-exo)-3-(methyl(7-((5-methyl-1H-pyrazol-3-yl)amino)-1,6-diazanaphthalen-5-yl)amino)-8-azabicyclo[3.2.1]oct-8-yl)propionitrile]: the results for the IC50 (on JAK1; on TYK2; in test [1] (setting [2])) were 5.69 nM, 1.63 nM and 2.93 nM, respectively.
On the same counts, the results for `Cc1cc(Nc2nc(N[C@@H]3C[C@H]4CC[C@@H](C3)N4CCC#N)c3cccn3n2)n[nH]1` [Embodiment 72, 3-((3-exo)-3-((2-((5-methyl-1H-pyrazol-3-yl)amino)pyrrolo[2,1-f][1,2,4]triazin-4-yl)amino)-8-azabicyclo[3.2.1]oct-8-yl)propionitrile] are 4.32 nM, 16 nM and 5.39 nM.
The like results for `Cc1cc(Nc2nc(O[C@@H]3C[C@H]4CC[C@@H](C3)N4CCC#N)nc3sccc23)n[nH]1` [Embodiment 279, 3-((3-exo)-3-((4-((5-methyl-1H-pyrazol-3-yl)amino)thieno[2,3-d]pyrimidin-2-yl)oxo)-8-azabicyclo[3.2.1]oct-8-yl)propionitrile] were, in that order, 0.24 nM, 0.66 nM and 2.2 nM.
